Experimental data as given in US20150299233A1, “COMPOSITIONS AND METHODS COMPRISING RHENIUM FOR THE TREATMENT OF CANCERS” (Massachusetts Institute of Technology, priority 2014, published 2015).
Where two headings read alike, the source gives them in different places.

Assays:
[1] = tested on: PC-3 (prostate adenocarcinoma); assay: MTT cytotoxicity assay, PC-3 cells; assay type: cell-based, human; conditions: Table 2; cisplatin-resistant cell line; 72 h exposure
[2] = Variable-temperature 1H NMR stability in DMSO; assay type: physicochemical; conditions: intact up to 75° C.
Description: Two rhenium(v) oxo complexes (1 and 2; see Scheme 1) were prepared by reacting ReOCI3)2 with […] of the corresponding bidentate ligand in methanol. The complexes were isolated in reasonable yields as pale green solids and fully characterized by NMR and IR spectroscopy, ESI-MS spectrometry, and elemental analysis.
Synthesis and Characterization. The rhenium(V) oxo complexes 1 and 2 (see Scheme 1) were prepared by the reaction of [ReOCl3(PPh3)2] with 1.5 equiv of the corresponding bidentate ligand in methanol (Scheme 1). The complexes were isolated in reasonable yields as pale green solids and fully characterized by NMR and IR spectroscopy and ESI mass spectrometry. The purity of the complexes was confirmed by elemental analysis.

[3] = tested on: cisplatin-sensitive cells (A2780); assay: MTT cytotoxicity assay, A2780 cells; assay type: cell-based, human
[4] = tested on: MRC-5; assay: MTT cytotoxicity assay, MRC-5 normal lung fibroblasts; assay type: cell-based, human; conditions: for selectivity over normal fibroblast cells (IC50 higher in normal fibroblasts than in cancer cells): cancer cells versus normal fibroblast cells
Description: In vitro toxicity of the rhenium (v) oxo complexes, 1 and 2 towards a panel of human cell lines was determined using the colorimetic MTT [[3-(4,5-dimethylithiazol-2-yl)-2,5-diphenyltetrazolium bromide] assay.
The in vitro effect of rhenium(V) oxo complexes 1 and 2 toward a panel of human cell lines was determined by the colorimetric MTT [3-(4,5-dimethylthiazol-2-yl)-2,5-diphenyltetrazolium bromide] assay. […] The IC50 values, or concentration required to induce 50% cell death, were derived from dose—response curves and are summarized in Table 1.
Cells (2×10^3 cells/well) were seeded in a 96-well plate. […] 1 and 2 were prepared as 10 mM solutions in DMSO and diluted using media. The final concentration of DMSO in each well was 0.5%, and this amount was also present in the untreated control. After 72 h, the medium was removed, 200 μL of a 0.4 mg/mL solution of MTT in DMEM, RPMI, or McCoy's 5A was added, and the plate was incubated for an additional 1-2 h. The DMEM/MTT, RPMI/MTT, or McCoy's 5A/MTT mixture was aspirated, and 200 μL of DMSO was added to dissolve the resulting purple formazan crystals. The absorbance of the solution wells was read at 550 nm. Absorbance values were normalized to DMSO-containing control wells and plotted as the concentration of test compound versus % cell viability. IC50 values were interpolated from the resulting dose-dependent curves. The reported IC50 values are the average from at least three independent experiments, each of which consisted of six replicates per concentration level.

[5] = tested on: HeLa cervical adenocarcinoma cells; assay: MTT cytotoxicity assay, HeLa cells; assay type: cell-based, human
[6] = tested on: A549 cells; assay: Cell cycle analysis, DNA-flow cytometry; assay type: cell-based, human; conditions: 2 μM
Description: Cell Cycle Analysis. To gain a more complete understanding of the cellular response evoked, DNA-flow cytometric studies were conducted to determine the effect of 1 and 2 on the cell cycle. A549 cells were treated with 1 or 2 (2 μM), and the cell cycle was determined over the course of 72 h. […] Upon further incubation (72 h), large populations of cell debris were detected (32%), indicative of cell death. […] G1-phase cell cycle arrest followed by immediate cell death is characteristic of programmed necrosis.
Cell Cycle. In order to monitor the cell cycle, flow cytometry studies were carried out. A549 cells (1.5×10^6 cells/well) grown in six-well plates were incubated with and without the test compounds for 24, 48, and 72 h at 37° C. Cells were harvested from adherent cultures by trypsinization and combined with all detached cells from the incubation medium to assess total cell viability. Following centrifugation at 1000 rpm for 5 min, cells were washed with PBS and then fixed with 70% ethanol in PBS. Fixed cells were collected by centrifugation at 2500 rpm for 3 min, washed with PBS, and centrifuged as before. Cellular pellets were resuspended in 50 μg/mL PI (Sigma) in PBS for nucleic acids staining and treated with 100 µg/mL RNaseA (Sigma). DNA content was measured on a FACSCalibur-HTS flow cytometer (BD Biosciences) using laser excitation at 488 nm, and 20 000 events per sample were acquired. Cell cycle profiles were analyzed using the ModFit software.

[7] = tested on: cisplatin-resistant ovarian carcinoma cells (A2780CP70); assay: MTT cytotoxicity assay, A2780CP70 cells; assay type: cell-based, human
[8] = tested on: MCF-7 (breast adenocarcinoma); assay: MTT cytotoxicity assay, MCF-7 cells; assay type: cell-based, human; conditions: Table 2; cisplatin-resistant cell line; 72 h exposure
[9] = Lipophilicity, partition between octanol and water; assay type: physicochemical; conditions: experimentally determined
[10] = tested on: HT-29; assay: Cytotoxicity in the presence of necrostatin-1, HT-29 cells; assay type: cell-based, human; conditions: necrostatin-1 60 μM, t test p<0.05
Description: In order to determine the cell-killing mechanism of 1 and 2, cytotoxicity studies in the presence of apoptosis and necrosis inhibitors were conducted. […] The possibility that 1 and 2 induce necroptosis was then investigated. Necroptosis is a well-regulated mode of cell death that is different from unregulated necrosis and apoptosis. Unlike unregulated necrosis, which can be induced by H2O2 or heat, necroptosis generally involved the interaction of protein kinases, RIP1 and RIP3, to initiate cell disintegration. This process can be blocked by necrostatin-1, a potent RIP1 kinase inhibitor. To determine whether 1 and 2 induced necroptosis and/or uncontrolled necrosis, cytotoxicity studies were conducted in the presence of necrostatin-1 (60 μM) and IM-54 (10 μM), an inhibitor of H2O2-induced necrosis. […] Therefore, 1- and 2-induced cell death relies on RIP1-RIP3 complex formation and not on the expression levels of the individual protein kinases. RIP1 can also form a cytosolic complex with Fas-associated death domain (FADD) and caspase 8, known as a ripoptosome, to initiate apoptosis (through caspase 8 cleavage).
Cytotoxicity MTT Assay. […] Cells (2×10^3 cells/well) were seeded in a 96-well plate. […] The absorbance of the solution wells was read at 550 nm. Absorbance values were normalized to DMSO-containing control wells and plotted as the concentration of test compound versus % cell viability. […]

[11] = Table 1, 72 h exposure, ± standard deviation, read-out: IC50 A2780 ovarian carcinoma
[12] = Table A, average of three independent determinations, read-out: IC50 A2780 (ovarian)
[13] = Table 1, 72 h exposure, ± standard deviation, read-out: IC50 MRC-5 lung fibroblast
[14] = Table A, average of three independent determinations, read-out: IC50 MRC5 (lung normal)
[15] = Table 1, 72 h exposure, ± standard deviation, read-out: IC50 HeLa cervical adenocarcinoma
[16] = Table A, average of three independent determinations, read-out: IC50 HeLa (cervical)
[17] = Table 1, 72 h exposure, ± standard deviation, read-out: IC50 A2780CP70 ovarian carcinoma
[18] = Table A, average of three independent determinations, read-out: IC50 A280CP70 (ovarian)

Compound: C[O][Re](=[O])([Cl])[Cl].c1ccc(-c2ccnc3c2ccc2c(-c4ccccc4)ccnc23)cc1 [Compound 1, [ReO(OMe)(4,7-diphenyl-1,10-phenanthroline)-Cl2]]
- IC50 [1]: 0.27 ± 0.014 µM
- stability in DMSO [2]: stable
- IC50 [3, 11]: 0.67 ± 0.04 µM
- IC50 [3, 12]: 0.67 ± 0.04 µM
- IC50 [4, 13]: 1.35 ± 0.228 µM
- IC50 [4, 14]: 1.35 ± 0.228 µM
- selectivity over normal fibroblast cells (IC50 higher in normal fibroblasts than in cancer cells) [4]: about 10 fold
- IC50 [5, 15]: 0.445 ± 0.004 µM
- IC50 [5, 16]: 0.445 µM
- effect on cell cycle after 24 h [6]: stalled the cell cycle at the G1 phase
- effect on cell cycle after 48 h ([6]; 48 h): remained stalled at the G1 phase
- population of cell debris, 72 h [6]: 32%
- IC50 [7, 17]: 0.042 ± 0.015 µM
- IC50 [7, 18]: 0.042 ± 0.015 µM
- IC50 [8]: 0.285 ± 0.035 µM
- log P [9]: 1.20
- effect of co-incubation with necrostatin-1 on toxicity, HT-29 [10]: markedly decreased the toxicity

Compound: C[O][Re-2]1(=[O])([Cl])([Cl])[n+]2cc(C)c(C)c3ccc4c(C)c(C)c[n+]1c4c32 [Compound 2, [ReO(OMe)(3,4,7,8-tetramethyl-1,10-phenanthroline)Cl2]]
- IC50 [1]: 0.78 ± 0.01 µM
- stability in DMSO [2]: stable
- IC50 [3, 11]: 0.15 ± 0.01 µM
- IC50 [3, 12]: 0.15 ± 0.01 µM
- IC50 [4, 13]: 0.709 ± 0.076 µM
- IC50 [4, 14]: 0.709 ± 0.076 µM
- selectivity over normal fibroblast cells (IC50 higher in normal fibroblasts than in cancer cells) [4]: about 10 fold
- IC50 [5, 15]: 0.695 ± 0.021 µM
- IC50 [5, 16]: 0.695 ± 0.021 µM
- effect on cell cycle after 24 h [6]: stalled the cell cycle at the G1 phase
- population of cell debris, 48 h ([6]; 48 h): 26%
- population of cell debris, 72 h [6]: 38%
- IC50 [7, 17]: 0.056 ± 0.002 µM
- IC50 [7, 18]: 0.056 ± 0.002 µM
- IC50 [8]: 0.805 ± 0.021 µM
- log P [9]: 0.95
- effect of co-incubation with necrostatin-1 on toxicity, HT-29 [10]: markedly decreased the toxicity
